Source: ChEMBL document CHEMBL3046274, “Toxicity of imidacloprid to developmental stages of Rhynchophorus ferrugineus (Curculionidae: Coleoptera): Laboratory and field tests” (Crop Prot, 2006)
Calls of active or inactive are those of the source. The rule behind the calls is not given here.

Columns and labels:
[1] = test system: Rhynchophorus ferrugineus; assay: Contact toxicity against Rhynchophorus ferrugineus (red palm weevil) adults assessed as time required for 50% reversible knockdown at 2.5 ml/l for 5 min; assay type: functional
[2] = test system: Rhynchophorus ferrugineus; assay: Pesticidal activity against Rhynchophorus ferrugineus (red palm weevil) larvae assessed as mortality at 1000 ppm administered topically at 36 hr post-treatment; assay type: functional
[3] = test system: Rhynchophorus ferrugineus; assay: Pesticidal activity against Rhynchophorus ferrugineus (red palm weevil) cocoon assessed as mortality at 1 ppm administered by dipping for 3 min measured at 48 hr post-treatment relative to control; assay type: functional
[4] = test system: Rhynchophorus ferrugineus; assay: Pesticidal activity against Rhynchophorus ferrugineus (red palm weevil) larvae assessed as mortality at 0.5 ppm, po at 18 hr post-treatment relative to control; assay type: functional
[5] = test system: Rhynchophorus ferrugineus; assay: Pesticidal activity against adult Rhynchophorus ferrugineus (red palm weevil) assessed as mortality at 1 ppm, po at 18 hr post-treatment relative to control; assay type: functional
[6] = test system: Rhynchophorus ferrugineus; assay: Pesticidal activity against Rhynchophorus ferrugineus (red palm weevil) cocoon assessed as mortality at 0.5 ppm administered by dipping for 3 min measured at 90 hr post-treatment relative to control; assay type: functional
[7] = test system: Rhynchophorus ferrugineus; assay: Pesticidal activity against adult Rhynchophorus ferrugineus (red palm weevil) assessed as mortality at 2 ppm, po at 18 hr post-treatment relative to control; assay type: functional
[8] = test system: Rhynchophorus ferrugineus; assay: Contact toxicity against Rhynchophorus ferrugineus (red palm weevil) adults assessed as time required for 50% mortality at 2.5 ml/l for 5 min; assay type: functional
[9] = test system: Rhynchophorus ferrugineus; assay: Pesticidal activity against adult Rhynchophorus ferrugineus (red palm weevil) assessed as mortality at 1.5 ppm, po at 114 hr post-treatment relative to control; assay type: functional
[10] = test system: Rhynchophorus ferrugineus; assay: Pesticidal activity against Rhynchophorus ferrugineus (red palm weevil) cocoon assessed as mortality at 4 ppm administered by dipping for 3 min measured at 18 hr post-treatment relative to control; assay type: functional
[11] = test system: Rhynchophorus ferrugineus; assay: Pesticidal activity against Rhynchophorus ferrugineus (red palm weevil) larvae assessed as mortality at 1000 ppm administered topically at 48 hr post-treatment; assay type: functional
[12] = test system: Rhynchophorus ferrugineus; assay: Pesticidal activity against Rhynchophorus ferrugineus (red palm weevil) cocoons assessed as time required for total mortality at 3.5 ml/l administered by dipping for 5 secs; assay type: functional
[13] = test system: Rhynchophorus ferrugineus; assay: Pesticidal activity against Rhynchophorus ferrugineus (red palm weevil) larvae assessed as mortality at 100 ppm administered topically at 48 hr post-treatment; assay type: functional
[14] = test system: Rhynchophorus ferrugineus; assay: Contact toxicity against Rhynchophorus ferrugineus (red palm weevil) adults assessed as time required for 50% reversible knockdown at 1.5 ml/l for 5 min; assay type: functional
[15] = test system: Rhynchophorus ferrugineus; assay: Pesticidal activity against Rhynchophorus ferrugineus (red palm weevil) cocoons assessed as time required for total mortality at 3.5 ml/l administered by dipping for 30 secs; assay type: functional
[16] = test system: Rhynchophorus ferrugineus; assay: Contact toxicity against Rhynchophorus ferrugineus (red palm weevil) adults assessed as time required for 100% reversible knockdown at 3.5 ml/l for 2 min; assay type: functional
[17] = test system: Rhynchophorus ferrugineus; assay: Pesticidal activity against Rhynchophorus ferrugineus (red palm weevil) larvae assessed as mortality at 1.5 ppm, po at 90 hr post-treatment relative to control; assay type: functional
[18] = test system: Rhynchophorus ferrugineus; assay: Contact toxicity against Rhynchophorus ferrugineus (red palm weevil) adults assessed as time required for 100% reversible knockdown at 1.5 ml/l for 2 min; assay type: functional
[19] = test system: Rhynchophorus ferrugineus; assay: Pesticidal activity against Rhynchophorus ferrugineus (red palm weevil) larvae assessed as mortality at 1.5 ppm, po at 114 hr post-treatment relative to control; assay type: functional
[20] = test system: Rhynchophorus ferrugineus; assay: Contact toxicity against Rhynchophorus ferrugineus (red palm weevil) adults assessed as time required for 100% mortality at 3.5 ml/l for 5 min; assay type: functional
[21] = test system: Rhynchophorus ferrugineus; assay: Pesticidal activity against Rhynchophorus ferrugineus (red palm weevil) larvae assessed as mortality at 1 ppm, po at 24 hr post-treatment relative to control; assay type: functional
[22] = test system: Rhynchophorus ferrugineus; assay: Pesticidal activity against Rhynchophorus ferrugineus (red palm weevil) larvae assessed as mortality at 0.5 ppm, po at 114 hr post-treatment relative to control; assay type: functional
[23] = test system: Rhynchophorus ferrugineus; assay: Pesticidal activity against Rhynchophorus ferrugineus (red palm weevil) cocoon assessed as mortality at 20 ppm administered by dipping for 3 min measured at 48 hr post-treatment relative to control; assay type: functional
[24] = test system: Rhynchophorus ferrugineus; assay: Pesticidal activity against adult Rhynchophorus ferrugineus (red palm weevil) assessed as mortality at 500 ppm administered topically at 72 hr post-treatment; assay type: functional
[25] = test system: Rhynchophorus ferrugineus; assay: Pesticidal activity Rhynchophorus ferrugineus (red palm weevil) larvae assessed as time required after hatching for 100% mortality at 1.5 ml/l administered topically measured up to 14 days relative to control; assay type: functional
[26] = test system: Rhynchophorus ferrugineus; assay: Pesticidal activity against Rhynchophorus ferrugineus (red palm weevil) larvae infested date palm tree assessed as reduction in mandibles movement of collected live stage larvae at 20 ml/4l of water applied through soil-drench irrigation measured after 3 weeks relative to control; assay type: functional, organism-based
[27] = test system: Rhynchophorus ferrugineus; assay: Pesticidal activity against Rhynchophorus ferrugineus (red palm weevil) cocoon assessed as mortality at 20 ppm administered by dipping for 3 min measured at 114 hr post-treatment relative to control; assay type: functional
[28] = test system: Rhynchophorus ferrugineus; assay: Pesticidal activity against Rhynchophorus ferrugineus (red palm weevil) cocoon assessed as mortality at 20 ppm administered by dipping for 3 min measured at 24 hr post-treatment relative to control; assay type: functional
[29] = test system: Rhynchophorus ferrugineus; assay: Pesticidal activity against adult Rhynchophorus ferrugineus (red palm weevil) assessed as mortality at 1 ppm, po at 48 hr post-treatment relative to control; assay type: functional
[30] = test system: Rhynchophorus ferrugineus; assay: Pesticidal activity against Rhynchophorus ferrugineus (red palm weevil) larvae assessed as mortality at 6 ppm, po at 48 hr post-treatment relative to control; assay type: functional
[31] = test system: Rhynchophorus ferrugineus; assay: Contact toxicity against Rhynchophorus ferrugineus (red palm weevil) adults assessed as time required for 100% mortality at 1.5 ml/l for 5 min; assay type: functional
[32] = test system: Rhynchophorus ferrugineus; assay: Pesticidal activity against adult Rhynchophorus ferrugineus (red palm weevil) assessed as mortality at 1.5 ppm, po at 48 hr post-treatment relative to control; assay type: functional
[33] = test system: Rhynchophorus ferrugineus; assay: Pesticidal activity against adult Rhynchophorus ferrugineus (red palm weevil) assessed as mortality at 2 ppm, po at 114 hr post-treatment relative to control; assay type: functional
[34] = test system: Rhynchophorus ferrugineus; assay: Pesticidal activity against Rhynchophorus ferrugineus (red palm weevil) cocoons assessed as time required for total mortality at 2.5 ml/l administered by dipping for 30 secs; assay type: functional
[35] = test system: Rhynchophorus ferrugineus; assay: Pesticidal activity against Rhynchophorus ferrugineus (red palm weevil) larvae assessed as mortality at 4 ppm, po at 72 hr post-treatment relative to control; assay type: functional
[36] = test system: Rhynchophorus ferrugineus; assay: Pesticidal activity against Rhynchophorus ferrugineus (red palm weevil) cocoon assessed as mortality at 0.5 ppm administered by dipping for 3 min measured at 24 hr post-treatment relative to control; assay type: functional
[37] = test system: Rhynchophorus ferrugineus; assay: Pesticidal activity against Rhynchophorus ferrugineus (red palm weevil) larvae assessed as mortality at 4 ppm, po at 24 hr post-treatment relative to control; assay type: functional
[38] = test system: Rhynchophorus ferrugineus; assay: Pesticidal activity against Rhynchophorus ferrugineus (red palm weevil) cocoon assessed as mortality at 2 ppm administered by dipping for 3 min measured at 18 hr post-treatment relative to control; assay type: functional
[39] = test system: Rhynchophorus ferrugineus; assay: Pesticidal activity against adult Rhynchophorus ferrugineus (red palm weevil) assessed as time required for reversible knockdown at 1.5 ml/l administered topically; assay type: functional
[40] = test system: Rhynchophorus ferrugineus; assay: Pesticidal activity against Rhynchophorus ferrugineus (red palm weevil) cocoon assessed as mortality at 1.5 ppm administered by dipping for 3 min measured at 48 hr post-treatment relative to control; assay type: functional
[41] = test system: Rhynchophorus ferrugineus; assay: Pesticidal activity against adult Rhynchophorus ferrugineus (red palm weevil) assessed as mortality at 100 ppm administered topically at 48 hr post-treatment; assay type: functional

O=[N+]([O-])/N=C1\NCCN1Cc1ccc(Cl)nc1 [IMIDACLOPRID]
Time [1]: 1.1 days | Activity [2]: 72.2% | Activity [3]: 0% | Activity [4]: 0% | Activity [5]: 38.9% | Activity [6]: 38.9% | Activity [7]: 100% | Time [8]: 3.2 days | Activity [9]: 100% | Activity [10]: 0% | Activity [11]: 100% | Time [12]: 5.9 days | Activity [13]: 0% | Time [14]: 3.2 days | Time [15]: 3.2 days | Time [16]: 3.2 days | Activity [17]: 100% | Time [18]: 9 days | Activity [19]: 100% | Time [20]: 4.2 days | Activity [21]: 0% | Activity [22]: 100% | Activity [23]: 44.4% | Activity [24]: 72.2% | Time [25]: 6 days | Activity [26]: Active | Activity [27]: 100% | Activity [28]: 0% | Activity [29]: 38.9% | Activity [30]: 100% | Time [31]: 8.1 days | Activity [32]: 73.2% | Activity [33]: 100% | Time [34]: 9.2 days | Activity [35]: 100% | Activity [36]: 0% | Activity [37]: 100% | Activity [38]: 0% | Time [39]: 4 days | Activity [40]: 0% | Activity [41]: 72.2%
